# Test results from PubChem BioAssay (NCI).
#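 How tested: cells in 96-well plates exposed to compound for 48 hours at five concentrations. TGI is the concentration that stops growth completely.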
# Tests used:
# Test in all cases: NCI anticancer screen, dose series, 48 h
# 786-0 renal = system: 786-0 renal
# COLO 205 colon = system: COLO 205 colon
# DU-145 prostate = system: DU-145 prostate
# MALME-3M melanoma = system: MALME-3M melanoma
# MDA-MB-231 breast = system: MDA-MB-231 breast
# OVCAR-8 ovarian = system: OVCAR-8 ovarian
# RXF 393 renal = system: RXF 393 renal
# SR leukemia = system: SR leukemia
compound,measurement,setting,value
Cc1ccc([N+](=O)[O-])cc1S(=O)(=O)Nc1ccc(C2=NN(c3ccc([N+](=O)[O-])cc3[N+](=O)[O-])C(c3ccccc3O)C2)cc1 (configuration not stated),TGI,786-0 renal,> 100 µM
same,TGI,COLO 205 colon,> 100 µM
same,TGI,DU-145 prostate,> 100 µM
same,TGI,MALME-3M melanoma,> 100 µM
same,TGI,MDA-MB-231 breast,86.6 µM
same,TGI,OVCAR-8 ovarian,> 100 µM
same,TGI,RXF 393 renal,> 100 µM
same,TGI,SR leukemia,> 100 µM
CC(=O)Oc1ccc(OC(Oc2ccccc2)c2ccccc2)cc1 (configuration not stated),TGI,786-0 renal,57.8 µM
same,TGI,COLO 205 colon,> 100 µM
same,TGI,DU-145 prostate,> 100 µM
same,TGI,MALME-3M melanoma,52.9 µM
same,TGI,MDA-MB-231 breast,48.8 µM
same,TGI,OVCAR-8 ovarian,> 100 µM
same,TGI,RXF 393 renal,57.1 µM
same,TGI,SR leukemia,54.5 µM
Cc1ccccc1NC(=S)N=Nc1c(O)[nH]c2ccccc12,TGI,786-0 renal,> 100 µM
same,TGI,COLO 205 colon,> 100 µM
same,TGI,DU-145 prostate,> 100 µM
same,TGI,MALME-3M melanoma,> 100 µM
same,TGI,MDA-MB-231 breast,> 100 µM
same,TGI,OVCAR-8 ovarian,> 100 µM
same,TGI,RXF 393 renal,> 100 µM
same,TGI,SR leukemia,> 100 µM
N=C1N=C(N)c2cc3c(cc21)SCCSCCCSCCS3,TGI,786-0 renal,32.6 µM
same,TGI,COLO 205 colon,16.9 µM
same,TGI,DU-145 prostate,88.4 µM
same,TGI,MALME-3M melanoma,44.4 µM
same,TGI,MDA-MB-231 breast,39.6 µM
same,TGI,OVCAR-8 ovarian,41.3 µM
same,TGI,RXF 393 renal,41.3 µM
same,TGI,SR leukemia,37.6 µM
Brc1cccc(C2(CCCC3(c4cccc(Br)n4)OCCO3)OCCO2)n1,TGI,786-0 renal,> 100 µM
same,TGI,COLO 205 colon,> 100 µM
same,TGI,MDA-MB-231 breast,> 100 µM
same,TGI,RXF 393 renal,> 100 µM
CC(=O)O[C@H]1CC[C@@]2(C)C(=CC[C@@H]3[C@@H]2CC[C@]2(C)c4nc(N)c(C#N)cc4C[C@@H]32)C1,TGI,786-0 renal,> 96 µM
same,TGI,COLO 205 colon,> 100 µM
same,TGI,DU-145 prostate,> 100 µM
same,TGI,MALME-3M melanoma,> 100 µM
same,TGI,MDA-MB-231 breast,> 100 µM
same,TGI,OVCAR-8 ovarian,> 100 µM
same,TGI,RXF 393 renal,49 µM
ClCc1c(-c2ccccc2)nn(-c2ccccc2)c1CCl,TGI,786-0 renal,22 µM
same,TGI,COLO 205 colon,25.5 µM
same,TGI,DU-145 prostate,29 µM
same,TGI,MALME-3M melanoma,30.6 µM
same,TGI,OVCAR-8 ovarian,30.8 µM
same,TGI,RXF 393 renal,28.3 µM
same,TGI,SR leukemia,33.4 µM
CC1NOC(NS(=O)(=O)c2ccc(N=Nc3c(O)c(C(=O)O)cc4ccccc34)cc2)C1C (configuration not stated),TGI,786-0 renal,> 100 µM
same,TGI,COLO 205 colon,> 100 µM
same,TGI,MALME-3M melanoma,> 100 µM
same,TGI,MDA-MB-231 breast,> 100 µM
same,TGI,OVCAR-8 ovarian,> 100 µM
same,TGI,RXF 393 renal,> 100 µM
same,TGI,SR leukemia,> 100 µM
O=c1[nH]c(=O)n(C2CC(O)C(CO)O2)cc1NN=NCc1ccccc1 (configuration not stated),TGI,786-0 renal,> 100 µM
same,TGI,DU-145 prostate,> 100 µM
same,TGI,MALME-3M melanoma,> 100 µM
same,TGI,MDA-MB-231 breast,> 100 µM
same,TGI,OVCAR-8 ovarian,> 100 µM
same,TGI,RXF 393 renal,> 100 µM
same,TGI,SR leukemia,> 100 µM
CCCCNC(=S)/N=C/c1c(O)c2ccccc2oc1=O,TGI,786-0 renal,> 100 µM
same,TGI,COLO 205 colon,> 100 µM
same,TGI,DU-145 prostate,> 100 µM
same,TGI,MDA-MB-231 breast,> 100 µM
same,TGI,OVCAR-8 ovarian,> 100 µM
O=C(CCc1cc(O)cc(O)c1)NCCc1ccc(O)c(O)c1,TGI,786-0 renal,> 100 µM
same,TGI,COLO 205 colon,> 100 µM
same,TGI,DU-145 prostate,> 100 µM
same,TGI,MDA-MB-231 breast,> 100 µM
same,TGI,OVCAR-8 ovarian,> 100 µM
same,TGI,RXF 393 renal,> 100 µM
same,TGI,SR leukemia,> 100 µM
Cc1cc2nc3n(c2cc1C)C(c1c(F)cccc1F)SC3 (configuration not stated),TGI,786-0 renal,43.4 µM
same,TGI,COLO 205 colon,44.6 µM
same,TGI,MALME-3M melanoma,65.1 µM
same,TGI,MDA-MB-231 breast,41.4 µM
same,TGI,OVCAR-8 ovarian,> 100 µM
same,TGI,RXF 393 renal,38.8 µM
same,TGI,SR leukemia,42.9 µM
O=C(NN=C1CCCCC1)Nc1ccccc1Cl,TGI,786-0 renal,> 100 µM
same,TGI,COLO 205 colon,> 100 µM
same,TGI,DU-145 prostate,> 100 µM
same,TGI,MALME-3M melanoma,> 100 µM
same,TGI,MDA-MB-231 breast,> 100 µM
same,TGI,OVCAR-8 ovarian,> 100 µM
same,TGI,SR leukemia,> 100 µM
O=C1C[C@H](c2ccccc2)C2(C(=O)c3ccccc3C2=O)[C@@H](c2ccccc2)C1,TGI,COLO 205 colon,53.6 µM
same,TGI,DU-145 prostate,> 100 µM
same,TGI,MALME-3M melanoma,> 100 µM
same,TGI,MDA-MB-231 breast,> 100 µM
same,TGI,OVCAR-8 ovarian,> 100 µM
same,TGI,RXF 393 renal,> 100 µM
same,TGI,SR leukemia,> 100 µM
O=C1CCC2=C(CCC2)N1CCc1ccc2c(c1)OCO2,TGI,786-0 renal,> 100 µM
same,TGI,COLO 205 colon,> 100 µM
same,TGI,DU-145 prostate,> 100 µM
same,TGI,MALME-3M melanoma,> 100 µM
same,TGI,MDA-MB-231 breast,> 100 µM
same,TGI,RXF 393 renal,52.5 µM
same,TGI,SR leukemia,> 100 µM
O=C1c2ccccc2C2(c3ccc(Cl)cc3)NCc3ccccc3CN12 (configuration not stated),TGI,786-0 renal,26.4 µM
same,TGI,COLO 205 colon,28.3 µM
same,TGI,DU-145 prostate,50.3 µM
same,TGI,MDA-MB-231 breast,> 100 µM
same,TGI,OVCAR-8 ovarian,60.8 µM
same,TGI,RXF 393 renal,29.6 µM
same,TGI,SR leukemia,> 100 µM
c1ccc(C(=NNc2nc3ccccc3[nH]2)c2ccccn2)nc1,TGI,786-0 renal,> 100 µM
same,TGI,COLO 205 colon,16.1 µM
same,TGI,DU-145 prostate,> 100 µM
same,TGI,MDA-MB-231 breast,> 53.6 µM
same,TGI,OVCAR-8 ovarian,> 33.2 µM
same,TGI,SR leukemia,0.271 µM
CC(O)(c1ccccc1)c1nccc2ccccc12 (configuration not stated),TGI,786-0 renal,> 100 µM
same,TGI,COLO 205 colon,> 100 µM
same,TGI,DU-145 prostate,> 100 µM
same,TGI,MALME-3M melanoma,> 100 µM
same,TGI,MDA-MB-231 breast,> 100 µM
same,TGI,OVCAR-8 ovarian,> 100 µM
same,TGI,RXF 393 renal,> 100 µM
Cc1ccc(S(=O)(=O)n2cc(-c3cnc(N)c(Br)n3)c3ccccc32)cc1,TGI,786-0 renal,> 23.3 µM
same,TGI,COLO 205 colon,10 µM
same,TGI,DU-145 prostate,6.68 µM
same,TGI,MDA-MB-231 breast,> 24 µM
same,TGI,OVCAR-8 ovarian,> 100 µM
same,TGI,RXF 393 renal,5.23 µM
same,TGI,SR leukemia,10.2 µM
COc1ccc(OC)c(CNc2ccc(O)c(C(=O)NCCc3ccc(F)cc3)c2)c1,TGI,786-0 renal,68.4 µM
same,TGI,COLO 205 colon,40.2 µM
same,TGI,DU-145 prostate,34.5 µM
same,TGI,MDA-MB-231 breast,21.7 µM
same,TGI,OVCAR-8 ovarian,37.6 µM
same,TGI,SR leukemia,12.1 µM
CCOC(=O)N(CC)c1c(C(F)(F)F)cc(-c2ccccc2)[nH]c1=O,TGI,786-0 renal,> 100 µM
same,TGI,COLO 205 colon,> 100 µM
same,TGI,DU-145 prostate,> 100 µM
same,TGI,MDA-MB-231 breast,> 100 µM
same,TGI,OVCAR-8 ovarian,> 100 µM
same,TGI,RXF 393 renal,> 100 µM
O=C(Nc1ccc2ccccc2c1)Nn1cnnc1,TGI,786-0 renal,> 100 µM
same,TGI,COLO 205 colon,> 100 µM
same,TGI,DU-145 prostate,> 100 µM
same,TGI,MALME-3M melanoma,> 100 µM
same,TGI,MDA-MB-231 breast,> 100 µM
same,TGI,OVCAR-8 ovarian,> 100 µM
same,TGI,SR leukemia,> 100 µM
CC(=O)c1ccc2c(c1)oc(=O)n2CCN(C)C,TGI,786-0 renal,> 100 µM
same,TGI,COLO 205 colon,> 100 µM
same,TGI,MALME-3M melanoma,> 100 µM
same,TGI,MDA-MB-231 breast,> 100 µM
same,TGI,OVCAR-8 ovarian,> 100 µM
same,TGI,RXF 393 renal,> 100 µM
same,TGI,SR leukemia,> 100 µM
Cc1cc(S(=O)(=O)O)ccc1N=Nc1ccc(N=Nc2c(O)ccc3ccccc23)c(C)c1,TGI,786-0 renal,61.3 µM
same,TGI,COLO 205 colon,> 100 µM
same,TGI,DU-145 prostate,> 100 µM
same,TGI,MALME-3M melanoma,> 100 µM
same,TGI,MDA-MB-231 breast,> 100 µM
same,TGI,OVCAR-8 ovarian,> 100 µM
same,TGI,RXF 393 renal,> 100 µM
C[C@H](CC[C@@H](O)C(C)(C)O)[C@H]1CC[C@@]2(C)[C@@H]3CC=C4[C@@H](CC[C@H](OC5OC(CO)C(O)C(O)C5O)C4(C)C)[C@]3(C)C(=O)C[C@]12C (some centres not stated),TGI,786-0 renal,70.5 µM
same,TGI,COLO 205 colon,> 100 µM
same,TGI,DU-145 prostate,> 100 µM
same,TGI,MALME-3M melanoma,> 100 µM
same,TGI,MDA-MB-231 breast,> 100 µM
same,TGI,OVCAR-8 ovarian,> 100 µM
same,TGI,RXF 393 renal,> 100 µM
CN(N)C(=O)NCCCl,TGI,786-0 renal,> 100 µM
same,TGI,COLO 205 colon,> 100 µM
same,TGI,DU-145 prostate,> 100 µM
same,TGI,MALME-3M melanoma,> 100 µM
same,TGI,MDA-MB-231 breast,> 100 µM
same,TGI,RXF 393 renal,> 100 µM
same,TGI,SR leukemia,> 100 µM
[N-]=[N+]=C1CNC(=O)NC1=O,TGI,786-0 renal,> 100 µM
same,TGI,COLO 205 colon,> 100 µM
same,TGI,DU-145 prostate,> 100 µM
same,TGI,MALME-3M melanoma,> 100 µM
same,TGI,MDA-MB-231 breast,> 100 µM
same,TGI,OVCAR-8 ovarian,> 100 µM
same,TGI,RXF 393 renal,> 100 µM
CC(C)(C)OC(=O)NC(CCCCNC(=O)OCc1ccccc1)C(=O)NC(CCCCNC(=O)OCc1ccccc1)C(=O)ON1C(=O)CCC1=O (configuration not stated),TGI,786-0 renal,> 100 µM
same,TGI,COLO 205 colon,> 100 µM
same,TGI,MALME-3M melanoma,> 100 µM
same,TGI,MDA-MB-231 breast,> 100 µM
same,TGI,OVCAR-8 ovarian,> 100 µM
same,TGI,RXF 393 renal,> 100 µM
same,TGI,SR leukemia,> 100 µM
